Assay results reported in patent publication US6777176B1, “Target system” (priority 1997, dated 2004).
Residues, ends and D or L forms follow the SMILES beside them. No end group written: not given here.

target: T1, enzyme I (Escherichia coli, UniProt P08839); assay: biochemical; format: biochemical, E. coli; conditions: in vitro PTS activity, purified HPr, enzyme I and IIGlcNAc, 30 min at 37° C.; Table I; read-out: inhibition IC50
T1 construct: made in house
Text: (d) Inhibition of in vitro PTS activity. The inhibitory activity of soluble compounds can be measured quantitatively in the sugar phospbotransferase assay in the presence of the purified PTS proteins and with [^14C]GlcNAc ([^14C]N-acetyl-glucosamine) or [^14C]Glc ([[…] as terminal phosphate acceptor (Erni et al., 1982 J. Biol. Chem. 257:13726-13730).
Inhibition of phosphotransferase activity by soluble peptides. This assay measures the inhibition of enzyme I dependent sugar phosphorylation activity. […] The purified N-acetylglucosamine transporter (II^GlcNAc) of E. coli (Mukhija and Erni, 1996) was used as the sugar specific component. The reaction mixture contained per 100 μl, 100 μg phosphatidyl glycerol from egg yolk (Sigma), 50 mM KPi, pH 7.5, 2.5 mM dithiothreitol, 2.5 mM NaF, 5 MM MgCl2, 1 mM phosphoenolpyruvate (potassium salt, Sigma), 0.5 mM [U-^14C]GlcNAc (New England Nuclear; 56.3 mCi/mmol, diluted to 1000 cpm/nmol), and 3 μM each of purified HPr and enzyme I (Mao et al., 1995 J. Biol. Chem. 270:5258-5265). The reaction was started by addition of 0.1 μg of II^GlcNAc. After incubation for 30 min at 37° C., the reaction was stopped by adding 1 ml ice-cold water. GlcNAc-6-Phosphate was separated from free Glc-NAc by anion-exchange chromatography on AG-1-X2 (50-100 mesh, Biorad). Activity is expressed as nmoles of sugar-P formed after 30 min. The HPr concentration was adjustedsuch that it was rate limiting in the overall phosphotransferase reaction. The inhibitory peptides were added to concentrations of 25 μm to 10 mM. Phosphorylation of GlcNAc in the absences of peptide was taken as 100%.

Row | Compound | IC50 [µM]
1 | CSCC[C@H](N)C(=O)N[C@@H](CCCNC(=N)N)C(=O)N[C@@H](CC(C)C)C(=O)N[C@@H](CC(C)C)C(=O)N[C@@H](CCCCN)C(=O)N[C@H](C(=O)N[C@@H](CC(C)C)C(=O)N[C@@H](CS)C(=O)N[C@@H](Cc1ccccc1)C(=O)NCC(=O)N[C@@H](CC(C)C)C(=O)N[C@@H](CS)C(=O)NCC(=O)O)[C@@H](C)O [compound 18] (H-MRLLKTLCFGLCG-OH; N-terminus and C-terminus assumed) | 3500
2 | CSCC[C@H](NC(C)=O)C(=O)N[C@@H](CCCNC(=N)N)C(=O)N[C@@H](CC(C)C)C(=O)N[C@@H](CC(C)C)C(=O)N[C@@H](CCCCN)C(=O)N[C@H](C(=O)N[C@@H](CC(C)C)C(=O)N[C@@H](CS)C(=O)N[C@@H](Cc1ccccc1)C(=O)N[C@H](C(=O)NCC(=O)N[C@@H](CC(C)C)C(=O)N[C@@H](CS)C(=O)NCC(=O)O)C(C)C)[C@@H](C)O [compound 19] (Ac-MRLLKTLCFVGLCG-OH) | > 10000

same assay, conditions: peptides from support-based combinatorial libraries; Table 2

Row | Compound | inhibition IC50
3 | KKFALRK [compound 21] | none

target: T1, enzyme I; assay: Pyruvate formation coupled to lactate dehydrogenase (uncoupling / phosphatase activity); format: biochemical, E. coli; conditions: Table 2
Text: The assay can be performed in microtiter plates and quantitated with a microplate photoreader. Another assay to monitor phosphatase activity of soluble compounds is based on the detection of pyruvate which is continuously produced from phosphoenolpyruvate whenever enzyme I is dephosphorylated. The enzyme I-specific phosphatase activity of soluble compounds can be detected from the pyruvate burst. The rate of pyruvate formation is monitored with lactate dehydrogenase and NADH. The assay can be performed in microtiter plates and quantitated with a microplate photoreader.

Row | Compound | uncoupling P1/peptide/h [P1/peptide/h]
4 | HPr protein: small (9 kD) soluble phosphorylcarrier protein HPr, natural phosphoryl acceptor of enzyme I | 2.70
5 | KGWHKRKK [compound 25] | 0.23
6 | KKFDLRK [compound 22, KKFDLRK] | 0.05
7 | KKFHIRKR [compound 28] | 0.31
8 | KKFHLRK [compound 20, KKFHLRK] | 0.49
9 | KKWHKRKK [compound 27] | 0.215
10 | KKWHLRKR [compound 24] | 0.3
11 | KKWHRRKK [compound 26] | 0.29
12 | XXKKWHLRKRXX [compound 23] | 0.43

same assay, conditions: μM NADH consumed per μM peptide per one hour multiplied by the IC50 (μM)

Row | Compound | uncoupling P1/peptide (x IC50/h)
13 | Ac-DGARLHYLF [compound 10] | 15.2
14 | DGARLHYLF [compound 9] | 132.3
15 | GLRGKTRVHYLVLG [peptide 1] | 3.2
16 | KISRHGKRGK [compound 5] | 1.9
17 | KISRHGRPTG [compound 6] | 479.3
18 | KMSRHRKPGA [compound 3] | 22.2
19 | MSRHRN [compound 16, MSRHRN] | 143.8
20 | RIHFIPRRGR [compound 7] | 39.6
21 | RLHYLF [compound 8, RLHYLF] | 64.2
22 | SGRKSTRVHHWLLVL [compound 2] | 6.6

tested on: E. coli K-12 UT580; assay: Growth inhibition assay, filter discs on LB soft agar; format: cell-based; conditions: area of clear zone around filter disc, over night at 37° C.
Method: FIG. 4. Growth inhibition of E. coli K12 UT580.
Growth inhibition assay. […] To each filter was added 10 μl of one of the different peptide stock solutions (20 μM to 80 μM). […] Compare FIG. 4 and Table I on the following two pages.

Row | Compound | growth inhibition (area/μM)
23 | GLRGKTRVHYLVLG [peptide 1] | 3.65
24 | RHITLF [compound 15, RHITLF] | 0.27
25 | RHWSIF [compound 11, RHWSIF] | 1.30
26 | RHYLLF [compound 13, RHYLLF] | 0.83
27 | RIHFIPRRGR [compound 7] | 0.77
28 | RLHYLF [compound 8, RLHYLF] | 0.90
29 | SGRKSTRVHHWLLVL [compound 2] | 3.05

tested on: not listed separately; assay: Growth inhibition MIC (Table 2); format: cell-based; conditions: not given

Row | Compound | growth inhibition MIC [µM]
30 | XXKKWHLRKRXX [compound 23] | 44.7

target: T2, PTS Enzyme I (Escherichia coli, UniProt P08839); assay: Inhibition of sugar uptake assay (enzyme I dependent GlcNAc phosphorylation), low molecular weight compounds; format: biochemical, E. coli; conditions: compounds at 25-200 μM, DMSO control taken as 100%; read-out: Activity against PTS Enzyme I IC50
T2 construct: made in house
Text: To find inhibitors of Enzyme I of the PTS by high throughput screening, an in vitro assay based on spectrophotometric read out at 340 nm has been set up. The assay comprises of three major components: purified enzyme I in catalytic amounts, PEP as the phosphoryl donor substrate, and purified HPr as the phosphoryl acceptor substrate. The assay couples the formation of pyruvate from PEP with its reduction to lactate, catalyzed by lactate dehydrogenase. The disappearance of NADH, cofactor required by lactate dehydrogenase, is monitored colorimetrically at 340 nm. The assay is done in a U-shaped microtiter plate format, and quantitation is done using microplate absorbance reader.
Reaction mixtures, each 100 μl, are used in the assay. Each reaction mixture contains 0.8 mM PEP, 0.2 mM NADH, 3 μg lactate dehydrogenase (Boehringer Mannheim), 50 mM KPi pH=7.5, 2.5 mM dithiothreitol, 2.5 mM NaF, 5 mM MgCl2, and between 25 and 200 μM of one of the organic compounds to be tested. […]
Once the inhibitors of Enzyme I of the PTS are identified by high throughput screening, inhibition of enzyme I dependent sugar phosphorylation activity is measured with the inhibition of sugar uptake assay detailed below.
This assay measures the inhibition of enzyme I dependent sugar phosphorylation activity. […] Activity is expressed as nmoles of sugar-P formed after 30 min. […]

Row | Compound | IC50 [µM]
31 | O=C1NN=C(c2ccccc2)CC1Cc1ccc(O)cc1 (centres unmarked) [4-(4-Hydroxy-benzyl)-6-phenyl-4,5-dihydro-2H-pyridazin-3-one] | 20
32 | Cc1cc(-c2onc(C)c2C(=O)Sc2ccc(Cl)cc2)no1 [5,3′-Dimethyl-[3,5′]-biisoxazolyl-4′-carbothioic acid-S-(4-chloro-phenyl) ester] | 50
